Entries after “also recorded” stand apart in the source; their conditions may differ.
Experiments:
Human TLR7/8 = assay: Human PBMC cell-based assay, TLR7/8 (RNA-Ig), cytokine ELISA; conditions: Hu PBMC; ligand RNA-Ig; read-out: IC50, IL-6, Human TLR7/8
IFN-regulated genes = assay: DBA/1 pristane lupus model, IFN-regulated gene expression in whole blood (qPCR, IFN score); format: in vivo, mouse; conditions: Pristane-induced diseased animals, DBA/1 mice, once-a-day oral dosing
Description: FIG. 1A through FIG. 1D show results of treatment with ER-888840 (5-((3R,5S)-3-amino-5-methylpiperidin-1-yl)quinoline-8-carbonitrile) in the DBA/1 pristane model. Figure Legend: Female DBA/1 mice at 10 weeks of age were given an intraperitoneal injection of 0.5 ml pristane or PBS. At 18 weeks of age animals were bled for pre-dosing baseline auto-antibody titers. Once-a-day oral dosing with Vehicle (Veh; 0.5% methyl-cellulose) or 11 mg/kg, 33 mg/kg, or 100 mg/kg of ER-888840 was begun at 18 weeks of age, 8 weeks after pristane injection and continued for 12 weeks of treatment. At the end of the experiment plasma samples were taken and anti-dsDNA and anti-histone (FIG. 1A) and anti-Sm/RNP and anti-RiboP (FIG. 1B) titers were determined by ELISA. (FIG. 1C) The expression of IFN-regulated genes in whole blood was measured by a qPCR panel after 8 weeks of treatment. […] (FIG. 1D) The interferon scores of individual mice were calculated (see Pharmacology Materials and Methods section for details regarding IFN score calculation) and groups compared using the Mann-Whitney t test.
FIG. 2A through 2E show results of treatment with ER-888840 in the DBA/1 pristane model. […] At the end of the experiment plasma was taken and anti-dsDNA (FIG. 2A), anti-RiboP (FIG. 2B), anti-histone (FIG. 2C) and anti-Sm/RNP (FIG. 2D) titers were determined by ELISA. […]

C[C@H]1C[C@@H](N)CN(c2ccc(C#N)c3ncccc23)C1 [ER-888840, 5-((3R,5S)-3-amino-5-methylpiperidin-1-yl)quinoline-8-carbonitrile]
IC50 (Human TLR7/8): 1.4 nM | effect on interferon-regulated gene expression (interferon score) (IFN-regulated genes): dose-dependently significantly reduced interferon-regulated gene expression; also recorded: suppressed the upregulation of interferon-driven genes

From patent publication US9663486B2, “Selectively substituted quinoline compounds” (EISAI R&D MANAGEMENT CO., LTD., priority 2013, dated 2017)
